Data taken from PubChem BioAssay AID179 (DTP/NCI, 2004).
Several values for one entry are separate records, joined by “and”; a condition that tells them apart may be missing. Equal entries are not always repeated. Activity calls are given as the source filed them.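 How the source made its calls: active means compounds giving half or more protection of infected cells from virus-caused growth loss, again on retest; inactive means the rest.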 Where a SMILES comes first, the peptide text is derived from it. The star is where a group is joined. Boc = CC(C)(C)OC(=O)*

System: CEM cells HIV-1 protection, formazan growth assay
Assay: NCI AIDS Antiviral Assay
Conditions: for IC50: measured here: growth of uninfected CEM cells
Summary of the method: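 Steps: treat uninfected and HIV-1-infected human CEM cells at five drug levels; quantify growth by soluble formazan; retest any compound reaching 50% protection; classify actives from the retest.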

| Structure (SMILES) | EC50 | IC50 | outcome |
| --- | --- | --- | --- |
| CCC(C)(C)c1ccc(OP(=S)(S)Oc2ccc(C(C)(C)CC)cc2)cc1 | > 200 µM | 37.2 µM |  |
| NC(N)=NCCCC(NCc1c2ccccc2[n+]([O-])c2ccccc12)C(=O)O (configuration not stated) |  |  | inactive |
| CCOC(=O)C1=C(c2ccccc2)NC(c2ccccc2)=C(C(=O)OCC)c2c1c(=O)cc[nH]c2=O | > 53.7 µM | > 53.7 µM |  |
| CCC/C(=N/NC(=O)C(N)=O)C(CC)C(=O)CCC(=O)N(Cc1ccccc1)Cc1ccccc1 (configuration not stated) | > 525 µM | > 525 µM |  |
| Nc1cccc2cn[nH]c12 | > 1480 µM | 229 µM |  |
| O=C(CCCCCCCCCCc1ccccc1)c1c(O)cccc1O | > 14.8 µM | > 14.8 µM |  |
| C=C1CC(Cn2cc(Br)c(=O)[nH]c2=O)(c2ccc(Br)cc2)OC1=O (configuration not stated) | > 20 µM | 0.759 µM |  |
| COc1cc(O)c2c(=O)c(O)c(-c3ccc(O)c(OC)c3)oc2c1 | > 200 µM | > 200 µM |  |
| O=C1C=C(N2CCCCC2)c2cc(N3CCCCC3)ncc2C1=O |  |  | inactive |
| O=c1oc2ccccc2c(O)c1C(c1cccs1)c1c(O)c2ccccc2oc1=O | > 200 µM | 30.2 µM |  |
| COc1cc(-c2oc3c(OC)c(OC)c(OC)c(OC)c3c(=O)c2OC)cc(OC)c1OC | > 200 µM | 17.8 µM |  |
| CC(=O)c1cccc(NC(=O)/C(=N\NC(=S)NN)C2C(=O)Nc3ccccc3S2=O)c1 (configuration not stated) | > 282 µM | > 282 µM |  |
| O=c1cc(-c2ccccc2)[nH]c2nccn12 | > 200 µM | > 200 µM |  |
| CC1(C)OC2O[C@H](C3OC[C@H]4O[C@@H](n5ccc(=O)[nH]c5=O)C(O)[C@H]4N3O)[C@@H]3OC(C)(C)O[C@@H]3C2O1 (some centres not stated) | > 200 µM | 105 µM |  |
| CCN(CC)CSc1nc2ccccc2[nH]1 |  |  | inactive |
| Cc1cc(NS(=O)(=O)c2ccc(Nc3c4ccccc4nc4c(C(=O)O)cccc34)cc2)no1 | > 200 µM | 178 µM |  |
| CCN(CC)CC/C=C1\c2ccccc2Sc2ccc(Cl)cc21 |  |  | inactive |
| O=NCC(=O)OCc1ccccc1 | > 200 µM | > 200 µM |  |
| CN(C)c1nc(NC23CC4CC(CC(C4)C2)C3)nc(N(C)C)n1 | > 200 µM | 5.01 µM |  |
| C=C(CO)[C@H]1Oc2ccc(C(C)=O)cc2[C@@H]1O | > 200 µM | > 200 µM |  |
| Cc1cccc(C(C)(C)C)c1NC(=O)C(C#N)C1=C(Cl)C(=O)c2ccccc2C1=O (configuration not stated) | > 107 µM | 22.9 µM |  |

| Structure (SMILES) | EC50 | IC50 | outcome |
| --- | --- | --- | --- |
| Brc1ccc(-c2cnc3nc4[nH]c5ccccc5c4nn23)cc1 | > 200 µM | 123 µM |  |
| COC12OCCN(CCO)C1=CC(=O)C1(C)N=NC(C)C12 (configuration not stated) |  |  | inactive |
| CC1(C)OC2C(=O)OC(COCc3ccccc3)C2O1 (configuration not stated) | > 36.3 µM | > 36.3 µM |  |
| Cc1ccc(NC(=O)CC(=O)n2nc(-c3ccccc3)c(N=Nc3ccccc3Cl)c2-c2ccccc2)cc1 | > 9.77 µM | > 9.77 µM |  |
| Cc1nc2c3c(ncn2n1)Oc1c(c(-c2ccccc2)nn1-c1ccccc1)C3c1ccc(Cl)cc1 (configuration not stated) | > 200 µM | > 200 µM |  |
| COc1ccc2c(c1)CCC1C[C@@H]3C[C@]21C=CC3=O (some centres not stated) | > 182 µM | 49 µM and > 28.2 µM |  |
| CC(=O)OCC1OC(N2C(=O)[C@H](Oc3ccccc3)[C@@H]2c2ccccc2)C(OC(C)=O)C(OC(C)=O)C1OC(C)=O (some centres not stated) | > 100 µM | > 100 µM |  |
| COc1c2c(c3c(c1CCC(=O)O)OC(C)(C)C=C3)OC(C)(C)C=C2 | > 200 µM | 138 µM |  |
| CC1=NN2C(=N)/C(=C/c3ccccc3)C(=O)N=C2S1 | > 200 µM | > 200 µM |  |
| Brc1ccccc1C1SCc2nc3ncccc3n21 (configuration not stated) | > 77.6 µM | > 77.6 µM |  |
| O=c1[nH]cnc2c1ncn2C1C=CC(CO)CC1 (configuration not stated) | > 200 µM | > 200 µM |  |
| C[N+](C)(C)CCC[N+](C)(C)CCN1C(=O)c2cccc3cccc(c23)C1=O | > 200 µM | > 200 µM |  |
| CC#CC(OCC)(OCC)OCC | > 1350 µM | > 1350 µM |  |
| O=C1/C(=C\c2cccc(Oc3ccccc3)c2)SC(c2ccccc2)N1c1cccc(Cl)c1 (configuration not stated) | > 200 µM | 16.2 µM |  |
| CN(C)Cc1cc(O)c(CN(C)C)cc1O | > 200 µM | 9.33 µM |  |
| COc1c(Cl)cc(C(=CCCCCN(C(=O)C=C(c2cc(Cl)c(OC)c(C(=O)O)c2)c2cc(Cl)c(OC)c(C(=O)O)c2)[C@H]2CC[C@@]3(C)[C@@H](CC[C@@H]4[C@@H]3CC[C@]3(C)[C@@H](C(C)CCCC(C)C)CC[C@@H]43)C2)c2cc(Cl)c(OC)c(C(=O)O)c2)cc1C(=O)O (some centres not stated) | 12.9 µM | 81.3 µM |  |
| COc1cc(OC)c2nc3occc3c(OC)c2c1 | > 363 µM | 58.9 µM |  |
| Cc1ccc(S(=O)(=O)S/C(=N\c2ccccn2)Nc2ccccn2)cc1 | > 324 µM | 83.2 µM |  |
| CCc1cccc(C)c1NC(=O)C(=O)Cc1nc2ccccc2s1 |  |  | inactive |
| CC(C)(C)C1C=C(Sc2ccccc2)C(=O)O1 (configuration not stated) | > 120 µM | 21.4 µM |  |
| C(#CP(c1ccccc1)c1ccccc1)P(c1ccccc1)c1ccccc1.C(#CP(c1ccccc1)c1ccccc1)P(c1ccccc1)c1ccccc1.C(#CP(c1ccccc1)c1ccccc1)P(c1ccccc1)c1ccccc1.C(#CP(c1ccccc1)c1ccccc1)P(c1ccccc1)c1ccccc1.[Pt].[Pt] | > 6.92 µM | 4.79 µM |  |

| Structure (SMILES) | EC50 | IC50 | outcome |
| --- | --- | --- | --- |
| C=CCC(C(=O)NC(N)=O)c1ccccc1 (configuration not stated) | > 832 µM | 617 µM |  |
| CCOC(=O)C1NS(=O)(=O)NC(C(=O)OCC)NS(=O)(=O)N1 (configuration not stated) |  |  | inactive |
| NS(=O)(=O)c1ccc(NC(=O)Cc2nc3ccccc3s2)cc1 | > 195 µM | 14.1 µM |  |
| CC(NC(=O)C(NC(=O)OC(C)(C)C)C(C)C)C(=O)N1CCCC1C(=O)O (stereo not drawn) (Boc-Val-Ala-Pro-OH; configuration not given here) | > 200 µM | > 200 µM |  |
| C[C@@H]1C(=O)CC2(O)[C@@]13C[C@@H](OC(=O)[C@@H]3O)[C@@H](C)[C@@]21COC1=O (some centres not stated) | > 813 µM | > 813 µM |  |
| CCCCOC(=O)c1cc(C(=CCC[C@H]2CC[C@@]3(C)[C@@H](CC[C@@H]4[C@@H]3CC[C@]3(C)[C@@H](C(C)CCCC(C)C)CC[C@@H]43)C2)c2cc(Cl)c(O)c(C(=O)OCCCC)c2)cc(Cl)c1O (some centres not stated) | > 100 µM | > 100 µM |  |
| COC(=O)C1=Nc2c(C)nn(-c3ccccc3)c2N=C(c2ccc(C)cc2)C1 | > 200 µM | > 200 µM |  |
| O=C1C=C(N2CCCCC2)c2cnccc2C1=O |  |  | inactive |
| COc1cccc(/C=N/[N-]C(N)=O)c1[O-].[Ni+2].[OH3+] | > 166 µM | 0.0525 µM |  |
| O=C(c1ccco1)C1CC(c2c(O)ccc3ccccc23)=NN1 (configuration not stated) | > 200 µM | 11.5 µM |  |
| Cc1ccc(S(=O)(=O)N/N=C2\CC(C)OC3=C2CCCCCC3)cc1 (configuration not stated) | > 200 µM | 33.9 µM |  |
| O=c1[nH]c2ccccc2nc1/C=C\NC(=S)Nc1cc(Cl)ccc1Cl | > 200 µM | 112 µM |  |
| O=S1(=O)c2ccccc2C(c2ccccc2)(c2ccccc2)N1c1ccccc1 | > 75.9 µM | 55 µM |  |
| COc1nc2c(nc(N)n2C2OCC(O)C(O)C2O)c(=O)n1C (configuration not stated) |  |  | inactive |
| O=C1C=CC2=[N+]([O-])C(c3ccccc3)(c3ccccc3)C(=Nc3ccccc3)C2=C1 |  |  | inactive |
| Nc1ccc(/C=C2\C=Cc3ccccc32)cc1 | > 200 µM | 28.2 µM |  |
| COc1ccc(/C=C(\C#N)c2ccc(OC)cc2)cc1 | > 200 µM | 8.13 µM |  |
| Nc1cc(C(=O)Nc2ccc(C3=NCCN3)cc2)cc(C(=O)Nc2ccc(C3=NCCN3)cc2)c1 | 16.2 µM | 145 µM |  |
| CC(NS(C)(=O)=O)c1ccccc1 (configuration not stated) | > 200 µM | > 200 µM |  |
| C(#C[C@@]12CCC[C@@H]1NCO2)c1ccc2c(c1)OCO2 | > 200 µM | 50.1 µM |  |
| CCOC(=O)c1c(C)nc(C)c(C(=O)OCC)c1-c1ccc(N(C)C)cc1 | > 200 µM | 53.7 µM |  |

| Structure (SMILES) | EC50 | IC50 | outcome |
| --- | --- | --- | --- |
| CCC(COC(=O)CC[C@@H](NC(=O)C(C)NC(=O)C(C)OC1C(O)C(CO)OC(OCc2ccccc2)C1NC(C)=O)C(N)=O)NC1c2ccccc2Nc2cccc([N+](=O)[O-])c21 (some centres not stated) | > 200 µM | 145 µM |  |
| CCCCCCCC[N+](C)(C)Cc1ccc(C[N+](C)(C)CCCCCCCC)cc1 |  |  | inactive |
| CN1CCCn2c(nc3ccccc3c2=O)C1 | > 1100 µM | > 1100 µM |  |
| Cn1c(=O)cc(C=Nc2ccc(C(=O)O)cc2)c2ccccc21 | > 200 µM | 1.32 µM |  |
| C[S+]1Cc2nc3ccccc3n2C1c1c(F)cccc1F (configuration not stated) | > 178 µM | 79.4 µM |  |
| Cc1ccccc1OCC1COC(c2ccc(Cl)cc2)O1 (configuration not stated) | > 200 µM | > 200 µM |  |
| O=C(OCC1CCCN2CCCCC12)c1ccncc1 (configuration not stated) | 19.1 µM | > 200 µM |  |
| O=C(Nc1cccc2c(OC(=O)C(Cl)Cl)c(N=Nc3ccc(S(=O)(=O)Nc4nccs4)cc3)cc(N=Nc3ccc(S(=O)(=O)Nc4nccs4)cc3)c12)C(Cl)Cl (tested in a mixture with another compound) | 46.8 µM and > 50.1 µM |  | inactive |
| CC(=O)[O-].CC(=O)[O-].CC(=O)[O-].CC(=O)[O-].CO.CO.CO.[Rh+2].[Rh+2].c1ccc(-c2ccccn2)nc1 | 145 µM | 174 µM |  |
| COc1ccc2c(c1O)-c1c(O)cccc1CCN(C)CC2 | > 200 µM | > 200 µM |  |
| [O-][n+]1onc(-c2ccccc2)c1-c1ccccc1 | > 151 µM | > 151 µM |  |
| N#C/C(=C1\N=C(c2ccccc2O)Oc2ccccc21)c1ccc([N+](=O)[O-])cc1 | > 100 µM | > 100 µM |  |
| CC1(S)CC2C(CC1Sc1ccccc1)C2(C)C (configuration not stated) | > 25.7 µM | > 25.7 µM |  |
| NC(CCCCP(=O)(O)O)C(=O)O (configuration not stated) | > 200 µM | > 200 µM |  |
| Cn1ccc2c(c1=O)C(=O)OC2(C)C | > 200 µM | > 200 µM |  |
| c1ccc(C2COC(c3ccc4c(c3)OCO4)O2)cc1 (configuration not stated) | > 200 µM | 162 µM |  |
| COc1ccc2c(c1)C(=O)C1CCC(=O)N1C2c1ccc2c(c1)OCO2 (configuration not stated) | > 200 µM | 3.72 µM |  |
| COC1=CC(=O)OC(/C=C(C)/C=C/C2=C(C)CCCC2(C)C)C1 (configuration not stated) |  |  | inactive |
| O=[N+]([O-])c1cccc2nc3ccccc3c(NCCCNc3c4ccccc4nc4cccc([N+](=O)[O-])c34)c12 | > 200 µM | 0.0631 µM |  |
